According to US20200129499A1, “COMBINATION OF TASQUINIMOD OR A PHARMACEUTICALLY ACCEPTABLE SALT THEREOF AND A PD-1 AND/OR PD-L1 INHIBITOR, FOR USE AS A MEDICAMENT” (ACTIVE BIOTECH AB, priority 2015, published 2020):

Legend:
MBT-2 tumors [1] = assay: Differential mRNA expression (qRT-PCR) in established MBT-2 tumors (Table S1); format: in vivo, mouse
Method: The relative mRNA expression of different genes was examined in MBT-2 tumors of treated animals with tasquinimod as compared to control group. Treatment started at day 11 post-tumor cell inoculation and qRT-PCR analysis was performed at day 15. Results are represented as mean fold-change compared with control. P values were evaluated using student test.
RNA extraction of murine CD1 1b+ was performed using the PicoPure® RNA Isolation Kit (Life Technologies). RNA in tumors was isolated from 100 μ ? -thick cryosections of OCT-embedded tumors using Trizol Reagent (Life Technologies). cDNAs were prepared using the High-Capacity cDNA Reverse Transcription Kit (Life Technologies) following the manufacturer's instructions. cDNA from CD1 1b+ isolated cells was pre-amplified (14 cycles) using the TaqMan PreAmp Master Mix (Life Technologies). Real time PCR (q-PCR) was performed with a two-step PCR protocol (95° C. for 10 min, followed by 40 cycles at 95° C. for 15 s and 60° C. for 1 min) using Taqman gene expression (Life Technologies). The probes that were used are documented in Table S2. Hmbs was used as “housekeeping” gene whose expression was correlated to other housekeeping quantified genes (e.g. Cyclophilin A). Expression levels were calculated as normalized ACt expression values between target gene and “housekeeping” genes.

MBT-2 tumors [2] = assay: Subcutaneous MBT-2 tumor growth in mice, initial combination study (Example 1); format: in vivo, mouse
Method: Six to seven-week old C3H/HeN male mice were purchased from JANVIER Labs. MBT-2, a mouse bladder cancer cell line (M. S. Soloway., Intravesical and systemic chemotherapy in the management of superficial bladder cancer, Urol. Clin. North Am. 11 (4):623-635, 1984), was provided from JCRB Cell Bank and was cultured in Eagle's minimal essential medium (Life Technologies) supplemented with 10% fetal bovine serum.
1×10^6 cells were injected subcutaneously into the flanks of mice and were allowed to grow until tumors reached a volume between 40 and 130 mm^3 (around day 10-1 1 post tumor cell inoculation).
Tumor volumes in mm^3 were assessed by caliper measurements and were calculated by the formula=(Width)^2×Length 12.
As mentioned in Table 2, the mice were treated with tasquinimod (30 mg/kg) p.o. (per os, i.e. oral administration) twice a day. For the blockade of PD-L1, 200 μg of the […] (clone 10F.9G2; Bio-XCell) was administered i.p. (intraperitoneally) to mice every 3 days. All studies were approved by the Bioethics committee of IPSEN (CE2A) and by the French Ministry of Agriculture and Fisheries' veterinary services.

[3] = tasquinimod 30 mg/kg from day 11, qRT-PCR at day 15

For `COc1cccc2c1c(O)c(C(=O)N(C)c1ccc(C(F)(F)F)cc1)c(=O)n2C` [tasquinimod, 4-hydroxy-5-methoxy-N,1-dimethyl-2-oxo-N-[4-(trifluoromethyl)phenyl]-1,2-dihydroquinoline-3-carboxamide], the “mRNA expression of PD-L1 in MBT-2 tumors” value (MBT-2 tumors [1]; established tumors, tasquinimod 30 mg/kg) was “increased”, the “Fold change tasquinimod/control, CCL5 mRNA” value (MBT-2 tumors [1]; [3]) was 0.88 and the “Fold change tasquinimod/control, CCL7 mRNA” value (MBT-2 tumors [1]; [3]) was 0.90. The “Fold change tasquinimod/control, Ccl2 mRNA” value (MBT-2 tumors [1]; [3]) was 0.86, the “Fold change tasquinimod/control, Cd274/PD-L1 mRNA” value (MBT-2 tumors [1]; [3]) was 1.46 and the “Fold change tasquinimod/control, Cxcl5 mRNA” value (MBT-2 tumors [1]; [3]) was 2.31. The “Fold change tasquinimod/control, Cxcl9 mRNA” value (MBT-2 tumors [1]; [3]) was 0.80, the “Fold change tasquinimod/control, Cxcl11 mRNA” value (MBT-2 tumors [1]; [3]) was 1.63 and the “Fold change tasquinimod/control, II-12b mRNA” value (MBT-2 tumors [1]; [3]) was 1.71. For the same compound, the “Fold change tasquinimod/control, Ifng mRNA” value (MBT-2 tumors [1]; [3]) was 1.53, the “Fold change tasquinimod/control, Mrc1/CD206 mRNA” value (MBT-2 tumors [1]; [3]) was 0.90 and the “Fold change tasquinimod/control, Nos2 mRNA” value (MBT-2 tumors [1]; [3]) was 1.76. The “Fold change tasquinimod/control, Serpinb2 mRNA” value (MBT-2 tumors [1]; [3]) was 3.65, the “Fold change tasquinimod/control, Tnf mRNA” value (MBT-2 tumors [1]; [3]) was 1.19 and the “Average of tumor volumes” value (MBT-2 tumors [2]; day 0 post tumor cell inoculation (before treatment)) was 0 mm^3. For the same compound, the “Average of tumor volumes” value (MBT-2 tumors [2]; day 10 post tumor cell inoculation) was 49 mm^3, the “Average of tumor volumes” value (MBT-2 tumors [2]; day 11 post tumor cell inoculation) was 61 mm^3 and the “Average of tumor volumes” value (MBT-2 tumors [2]; day 13 post tumor cell inoculation) was 180 mm^3. For the same compound, the “Average of tumor volumes” value (MBT-2 tumors [2]; day 14 post tumor cell inoculation) was 225 mm^3, the “Average of tumor volumes” value (MBT-2 tumors [2]; day 15 post tumor cell inoculation) was 309 mm^3 and the “Average of tumor volumes” value (MBT-2 tumors [2]; day 17 post tumor cell inoculation) was 390 mm^3. The “impact on tumor growth of MBT-2 tumors” value (MBT-2 tumors [2]; tasquinimod 30 mg/kg p.o. twice a day, antibody 200 μg i.p. every 3 days, from day 10-11) was “slight non-significant impact”.
